Data set [1] can be described thus: Prodrug conversion in human CEM/0 cell extract assessed as metabolite formation by measuring half life by HPLC analysis. The conditions noted are these: ccrf-cem. It is filed as ADME.
Data set [2] can be described thus: Prodrug conversion in human CEM/0 cell extract assessed as ((2S,5R)-5-(5-methyl-2,4-dioxo-3,4-dihydropyrimidin-1(2H)-yl)-2,5-dihydrofuran-2-yl)methyl tri-hydrogen diphosphate formation by HPLC analysis. It is filed as ADME. The conditions noted are these: ccrf-cem.
For data set [3], the system named is Human immunodeficiency virus 1. Nature of the data set: Antiviral activity against HIV-1 HE infected in wild-type human CEM/0 cells assessed as inhibition of virus-induced cytopathic effect incubated for 4 to 5 days by light microscopic analysis. It is filed as functional, organism-based. The conditions noted are these: Human immunodeficiency virus 1, HE, CCRF-CEM. In general terms: Damage to the host cells serves as the signal in cytopathic effect assays.

Data set [4] relates to Human immunodeficiency virus 2. Nature of the data set: Antiviral activity against HIV-2 ROD infected in wild-type human CEM/0 cells assessed as inhibition of virus-induced cytopathic effect incubated for 4 to 5 days by light microscopic analysis. It counts as functional, organism-based. The note with it: Human immunodeficiency virus 2, ROD, CCRF-CEM.
The subject of data set [5] is Human immunodeficiency virus 2. Nature of the data set: Antiviral activity against HIV-2 ROD infected in thymidine kinase-deficient human CEM cells assessed as inhibition of virus-induced cytopathic effect incubated for 4 to 5 days by light microscopic analysis. The note with it: Human immunodeficiency virus 2, ROD, CCRF-CEM. It is filed as functional, organism-based.

Data set [6] can be described thus: Cytotoxicity against human CEM cells assessed as reduction in cell viability incubated for 4 to 5 days by light microscopic analysis. It counts as toxicity, cell-based. The conditions noted are these: CEM cells (CCRF-CEM), time 4-5 day.
Data set [7] addresses DNA polymerase beta (Homo sapiens) (UniProt P06746). Put plainly: Substrate activity at human DNA polymerase beta measured after 4 hrs by electrophoresis based primer extension assay.
Data set [8] has as its target T1, DNA polymerase subunit gamma-1 (Homo sapiens) (UniProt P54098).
T1 sequence (whole entry): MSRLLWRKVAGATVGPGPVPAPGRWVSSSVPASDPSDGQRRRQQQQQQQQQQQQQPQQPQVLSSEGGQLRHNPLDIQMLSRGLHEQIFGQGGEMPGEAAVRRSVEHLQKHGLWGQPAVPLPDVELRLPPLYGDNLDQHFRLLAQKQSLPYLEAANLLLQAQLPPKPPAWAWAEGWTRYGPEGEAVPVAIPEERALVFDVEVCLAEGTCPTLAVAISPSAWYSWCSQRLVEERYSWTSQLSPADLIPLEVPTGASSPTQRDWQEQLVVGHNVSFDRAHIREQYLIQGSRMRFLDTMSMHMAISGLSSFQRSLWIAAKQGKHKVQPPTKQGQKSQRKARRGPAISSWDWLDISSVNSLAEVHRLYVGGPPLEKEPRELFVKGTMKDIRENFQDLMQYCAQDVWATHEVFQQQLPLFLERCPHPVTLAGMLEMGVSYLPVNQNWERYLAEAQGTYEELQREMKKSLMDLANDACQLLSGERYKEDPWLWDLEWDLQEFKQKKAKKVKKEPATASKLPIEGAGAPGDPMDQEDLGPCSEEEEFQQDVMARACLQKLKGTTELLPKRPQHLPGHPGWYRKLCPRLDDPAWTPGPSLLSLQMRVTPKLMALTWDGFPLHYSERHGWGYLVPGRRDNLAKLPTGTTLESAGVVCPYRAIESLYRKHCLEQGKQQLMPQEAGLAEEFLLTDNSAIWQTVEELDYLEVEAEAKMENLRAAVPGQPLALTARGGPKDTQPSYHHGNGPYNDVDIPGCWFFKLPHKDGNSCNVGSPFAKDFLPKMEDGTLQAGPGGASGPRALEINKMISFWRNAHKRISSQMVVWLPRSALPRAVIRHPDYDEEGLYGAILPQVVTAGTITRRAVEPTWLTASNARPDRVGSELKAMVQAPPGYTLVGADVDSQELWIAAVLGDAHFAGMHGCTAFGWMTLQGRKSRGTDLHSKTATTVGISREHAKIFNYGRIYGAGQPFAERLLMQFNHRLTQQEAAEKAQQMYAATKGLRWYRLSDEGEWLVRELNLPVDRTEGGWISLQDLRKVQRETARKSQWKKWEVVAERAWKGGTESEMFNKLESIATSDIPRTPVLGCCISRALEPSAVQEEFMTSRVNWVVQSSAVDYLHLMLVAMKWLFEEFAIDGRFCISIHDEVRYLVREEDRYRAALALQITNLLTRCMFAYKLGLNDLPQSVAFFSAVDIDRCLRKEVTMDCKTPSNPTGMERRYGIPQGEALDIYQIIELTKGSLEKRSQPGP
Put plainly: Substrate activity at human DNA polymerase gamma measured after 4 hrs by electrophoresis based primer extension assay.

Data set [9] deals with Human immunodeficiency virus 1. Put plainly: Potency index, ratio of 3'-deoxy-2',3'-dehydrothymidine EC50 to compound EC50 for antiviral activity against HIV-1 HE infected in wild-type human CEM/0 cells. It counts as functional.
In data set [10] the test system is Human immunodeficiency virus 2. Put plainly: Potency index, ratio of 3'-deoxy-2',3'-dehydrothymidine EC50 to compound EC50 for antiviral activity against HIV-2 ROD infected in wild-type human CEM/0 cells. It counts as functional.
The subject of data set [11] is Human immunodeficiency virus 2. Nature of the data set: Potency index, ratio of 3'-deoxy-2',3'-dehydrothymidine EC50 to compound EC50 for antiviral activity against HIV-2 ROD infected in thymidine kinase-deficient human CEM[…] cells. It is filed as functional.

Molecules are shown by their SMILES. Calls of active or inactive are those of the source. The calls are words filed in the database; no cut-off is given here. Where only a bound is given, the exact number is not on record here.

As to `CCCCCCCCCCCCCCCCCCP(=O)(OC)OP(=O)(O)OP(=O)(O)OC[C@@H]1C=C[C@H](n2cc(C)c(=O)[nH]c2=O)O1.N.N` (stereo partly specified), the t1/2 in data set [1] is over 15 h. In addition, the Drug metabolism result in data set [2] is “Metabolite_Detected”. Also, the EC50 in data set [3] turned out to be 51 nM; in [4], 80 nM; in [5], 480 nM. In addition, the CC50 in data set [6] was determined as 40000 nM. The outcome in data set [7] and in data set [8] was inactive. Further, the results for the “Ratio EC50” value in data set [9], in data set [10] and in data set [11] were 4, 4 and 10000, respectively.

What is called EC50 is the concentration that produces a half-maximal response. In general, CC50 refers to the concentration that lowers cell viability or growth by half.

The values above are taken from ChEMBL document CHEMBL5365447, “Pronucleotides of 2',3'-Dideoxy-2',3'-Didehydrothymidine as Potent Anti-HIV Compounds” (J Med Chem, 2023).
